Results: patent publication US12264156B2, “Compounds and pharmaceutical compositions thereof for the treatment of diseases” (GALAPAGOS NV, priority 2018, dated 2025)
Where two headings read alike, the source gives them in different places.

Columns and labels:
SIK2 = molecular target: T1, SIK2 (Homo sapiens, UniProt Q9H0K1); test: ADP-Glo kinase assay, SIK2; assay type: biochemical; details: ADP-Glo SIK kinase assay
T1 construct: purchased ThermoFisher Scientific PV4792
In short: (§1)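 Enzyme–substrate mix was started with ATP and incubated 120 min at RT. ADP formed was quantified by ADP-Glo: 40 min ATP depletion, then 30 min detection reagent converting ADP to ATP for luciferase luminescence, which rises with kinase activity. Controls: 1% DMSO and 10 μM staurosporine (final).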

SIK3 = molecular target: T2, SIK3 (Homo sapiens, UniProt Q9Y2K2); test: ADP-Glo kinase assay, SIK3; assay type: biochemical; details: ADP-Glo SIK kinase assay
T2 construct: purchased SignalChem S12-11G-100
T2 sequence (Q9Y2K2 whole entry): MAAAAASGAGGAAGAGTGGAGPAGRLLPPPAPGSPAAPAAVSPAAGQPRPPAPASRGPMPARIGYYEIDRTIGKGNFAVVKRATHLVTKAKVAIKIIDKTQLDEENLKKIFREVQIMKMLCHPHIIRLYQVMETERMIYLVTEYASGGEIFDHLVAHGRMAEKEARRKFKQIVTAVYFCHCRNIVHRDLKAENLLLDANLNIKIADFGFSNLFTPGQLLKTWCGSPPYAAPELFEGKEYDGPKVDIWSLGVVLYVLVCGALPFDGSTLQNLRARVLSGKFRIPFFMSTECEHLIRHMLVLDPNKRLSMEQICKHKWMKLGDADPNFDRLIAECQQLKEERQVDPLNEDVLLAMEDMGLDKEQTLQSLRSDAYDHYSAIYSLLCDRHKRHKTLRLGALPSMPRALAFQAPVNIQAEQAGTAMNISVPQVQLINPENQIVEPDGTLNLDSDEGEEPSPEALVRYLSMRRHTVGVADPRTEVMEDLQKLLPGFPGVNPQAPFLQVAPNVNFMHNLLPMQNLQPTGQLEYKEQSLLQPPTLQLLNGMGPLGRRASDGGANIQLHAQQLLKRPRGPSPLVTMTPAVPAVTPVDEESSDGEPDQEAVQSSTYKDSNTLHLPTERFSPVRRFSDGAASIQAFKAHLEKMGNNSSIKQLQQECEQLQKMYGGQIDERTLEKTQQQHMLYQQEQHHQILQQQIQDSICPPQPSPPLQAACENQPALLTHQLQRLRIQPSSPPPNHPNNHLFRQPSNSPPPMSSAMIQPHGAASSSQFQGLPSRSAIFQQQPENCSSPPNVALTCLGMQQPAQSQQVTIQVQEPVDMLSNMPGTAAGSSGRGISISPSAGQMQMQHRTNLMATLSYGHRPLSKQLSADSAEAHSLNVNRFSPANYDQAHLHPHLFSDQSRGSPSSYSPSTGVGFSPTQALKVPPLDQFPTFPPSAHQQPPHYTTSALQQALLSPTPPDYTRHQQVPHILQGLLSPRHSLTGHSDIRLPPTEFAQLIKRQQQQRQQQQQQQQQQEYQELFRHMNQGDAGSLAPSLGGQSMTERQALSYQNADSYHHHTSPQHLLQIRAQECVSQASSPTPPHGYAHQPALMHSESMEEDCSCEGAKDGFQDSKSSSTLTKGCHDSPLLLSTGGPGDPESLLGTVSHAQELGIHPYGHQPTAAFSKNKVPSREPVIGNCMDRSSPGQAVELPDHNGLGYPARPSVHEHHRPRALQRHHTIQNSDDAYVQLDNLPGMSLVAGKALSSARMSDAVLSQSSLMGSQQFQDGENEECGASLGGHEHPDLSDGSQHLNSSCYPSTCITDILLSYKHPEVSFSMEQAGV
In short: as §1

[1] = system: LPS-induced TNFα in monocyte-derived macrophages (MdM); test: MdM assay: LPS-triggered TNFα (ELISA); assay type: cell-based, human; details: Homo sapiens, Macrophage, 20 h
In short: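 Human monocyte-derived macrophages from CD14+ bead-selected buffy-coat PBMCs, used on day 10, pre-treated with compound for 1 h at 37 °C (0.2% DMSO), then stimulated with 200 ng/mL LPS. Supernatant taken after 20 h for TNFα sandwich ELISA (IL-10 at 2 h).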

[2] = monocyte-derived macrophages, LPS 200 ng/mL, supernatant after 20 h, read-out: TNFα EC50

T1 sequence (Q9H0K1 whole entry): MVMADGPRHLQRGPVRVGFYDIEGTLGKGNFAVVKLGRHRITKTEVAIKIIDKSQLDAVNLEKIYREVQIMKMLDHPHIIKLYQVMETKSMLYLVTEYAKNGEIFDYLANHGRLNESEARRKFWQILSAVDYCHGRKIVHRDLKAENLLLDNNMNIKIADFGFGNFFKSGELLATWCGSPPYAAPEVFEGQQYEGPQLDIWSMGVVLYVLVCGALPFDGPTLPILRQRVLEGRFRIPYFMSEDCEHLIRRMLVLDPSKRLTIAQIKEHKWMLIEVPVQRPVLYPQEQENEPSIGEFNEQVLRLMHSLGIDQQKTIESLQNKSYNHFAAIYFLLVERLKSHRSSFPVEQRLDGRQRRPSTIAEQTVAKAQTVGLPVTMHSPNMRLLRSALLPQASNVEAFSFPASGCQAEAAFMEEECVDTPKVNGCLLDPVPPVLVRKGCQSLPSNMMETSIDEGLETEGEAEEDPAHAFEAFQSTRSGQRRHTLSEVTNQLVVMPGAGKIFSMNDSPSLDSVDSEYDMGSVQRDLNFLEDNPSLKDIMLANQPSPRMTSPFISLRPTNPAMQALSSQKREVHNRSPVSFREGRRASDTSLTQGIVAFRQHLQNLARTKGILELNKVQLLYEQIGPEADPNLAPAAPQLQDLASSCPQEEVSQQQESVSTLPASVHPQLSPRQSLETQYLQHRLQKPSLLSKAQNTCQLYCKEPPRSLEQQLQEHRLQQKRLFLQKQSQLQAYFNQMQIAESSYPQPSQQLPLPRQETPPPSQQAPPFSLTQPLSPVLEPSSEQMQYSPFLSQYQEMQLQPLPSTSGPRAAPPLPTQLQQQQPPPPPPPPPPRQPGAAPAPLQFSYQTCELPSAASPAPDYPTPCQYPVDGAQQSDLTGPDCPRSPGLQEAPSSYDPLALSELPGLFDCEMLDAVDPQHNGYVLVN

IC50 (SIK2) | IC50 (SIK3) | EC50 [1, 2] | SMILES | EC50 ([1]; read-out: TNFα EC50 (nM))
0.01 to 10 nM | 0.01 to 10 nM | 100 to 1000 nM | COc1cc(-c2cnc3cc(OC[C@H]4CN(C)CCO4)ccn23)cc2c1C(=O)N(CC(F)(F)F)CC2 [compound 190, 8-methoxy-6-[7-[[(2R)-4-methylmorpholin-2-yl]methoxy]imidazo[1,2-a]pyridin-3-yl]-2-(2,2,2-trifluoroethyl)-3,4-dihydro isoquinolin-1-one] | 
0.01 to 10 nM | 0.01 to 10 nM | 100 to 1000 nM | COc1cc(-c2cnc3cc(OC[C@@H]4CN(C)CCO4)ccn23)cc2c1C(=O)N(CC(F)(F)F)CC2 [compound 191, 8-methoxy-6-[7-[[(2S)-4-methylmorpholin-2-yl]methoxy]imidazo [1,2-a]pyridin-3-yl]-2-(2,2,2-trifluoroethyl)-3,4-dihydroisoquinolin-1-one] | 
0.01 to 10 nM | 0.01 to 10 nM | 100 to 1000 nM | COc1cc(-c2cnc3cc(OCCN4C[C@@H]5C[C@H]4CO5)ccn23)cc(OC(F)F)c1C(=O)NC1CC1 [compound 206, N-cyclopropyl-2-(difluoromethoxy)-6-methoxy-4-[7-[2-[(1S,4S)-2-oxa-5-azabicyclo[2.2.1]heptan-5-yl]ethoxy]imidazo[1,2-a]pyridin-3-yl]benzamide] | 
0.01 to 10 nM | 0.01 to 10 nM | 100 to 1000 nM | COc1cc(-c2cnc3cc(OCCN4CCOCC4)ccn23)cc2c1C(=O)N(CC(F)F)CC2 [compound 218, 2-(2,2-difluoroethyl)-8-methoxy-6-[7-(2-morpholinoethoxy)imidazo [1,2-a]pyridin-3-yl]-3,4-dihydroisoquinolin-1-one] | 
0.01 to 10 nM | 0.01 to 10 nM | 1000 to 5000 nM | COc1cc(-c2cnc3cc(OC[C@H]4COCCO4)ccn23)cc2c1C(=O)N(CC(F)F)CC2 [compound 219, 2-(2,2-difluoroethyl)-6-[7-[[(2R)-1,4-dioxan-2-yl]methoxy]imidazo[1,2-a]pyridin-3-yl]-8-methoxy-3,4-dihydroisoquinolin-1-one] | 
0.01 to 10 nM | 0.01 to 10 nM | 100 to 1000 nM | COc1cc(-c2cnc3cc(OCC4(C)CN(C)C4)ccn23)cc(OC(F)F)c1C(=O)NC1CC1 [compound 220, N-cyclopropyl-2-(difluoromethoxy)-4-[7-[(1,3-dimethylazetidin-3-yl)methoxy]imidazo[1,2-a]pyridin-3-yl]-6-methoxy-benzamide] | 
0.01 to 10 nM | 0.01 to 10 nM | 100 to 1000 nM | COc1cc(-c2cnc3cc(OC[C@@H]4COCCO4)ccn23)cc2c1C(=O)N(CC(F)(F)F)CC2 [compound 225, 6-[7-[[(2S)-1,4-dioxan-2-yl]methoxy]imidazo[1,2-a]pyridin-3-yl]-8-methoxy-2-(2,2,2-trifluoroethyl)-3,4-dihydroisoquinolin-1-one] | 
0.01 to 10 nM | 0.01 to 10 nM | > 5000 nM | COc1cc(-c2cnc3cc(OCc4nncn4C)ccn23)cc(OC(F)F)c1C(=O)NC1CC1 [compound 227, N-cyclopropyl-2-(difluoromethoxy)-6-methoxy-4-[7-[(4-methyl-1,2,4-triazol-3-yl)methoxy]imidazo[1,2-a]pyridin-3-yl]benzamide] | 
0.01 to 10 nM | 0.01 to 10 nM | 100 to 1000 nM | COc1cc(-c2cnc3cc(OCCN4CCOC[C@@H]4C)ccn23)cc(OC(F)F)c1C(=O)NC1CC1 [compound 233, N-cyclopropyl-2-(difluoromethoxy)-6-methoxy-4-[7-[2-[(3S)-3-methylmorpholin-4-yl]ethoxy]imidazo[1,2-a]pyridin-3-yl]benzamide] | 
0.01 to 10 nM | 0.01 to 10 nM | 100 to 1000 nM | COc1cc(-c2cnc3cc(OCCN4CCOC[C@H]4C)ccn23)cc(OC(F)F)c1C(=O)NC1CC1 [compound 234, N-cyclopropyl-2-(difluoromethoxy)-6-methoxy-4-[7-[2-[(3R)-3-methylmorpholin-4-yl]ethoxy]imidazo[1,2-a]pyridin-3-yl]benzamide] | 
0.01 to 10 nM | 0.01 to 10 nM | 100 to 1000 nM | COc1cc(-c2cnc3cc(OC[C@H]4COCCO4)ccn23)cc2c1C(=O)NCC2 [compound 242, 6-[7-[[(2R)-1,4-dioxan-2-yl]methoxy]imidazo[1,2-a]pyridin-3-yl]-8-methoxy-3,4-dihydro-2H-isoquinolin-1-one] | 
0.01 to 10 nM | 0.01 to 10 nM | 100 to 1000 nM | COc1cc(-c2cnc3cc(OCC4(F)CN(C(=O)OC(C)(C)C)C4)ccn23)cc2c1C(=O)N(CC(F)(F)F)CC2 [compound 248, tert-butyl 3-fluoro-3-[[3-[8-methoxy-1-oxo-2-(2,2,2-trifluoroethyl)-3,4-dihydroisoquinolin-6-yl]imidazo[1,2-a]pyridin-7-yl]oxymethyl]azetidine-1-carboxylate] | 
0.01 to 10 nM | 0.01 to 10 nM | 100 to 1000 nM | COc1cc(-c2cnc3cc(OCC4(F)CN(C)C4)ccn23)cc2c1C(=O)N(CC(F)(F)F)CC2 [compound 252, 6-[7-[(3-fluoro-1-methyl-azetidin-3-yl)methoxy]imidazo[1,2-a]pyridin-3-yl]-8-methoxy-2-(2,2,2-trifluoroethyl)-3,4-dihydro isoquinolin-1-one] | 
10 to 100 nM | 10 to 100 nM | 100 to 1000 nM | COc1cc(-c2cnc3cc(OCCN4CCOC[C@H]4C)ccn23)cc2c1C(=O)N(CC(F)(F)F)CC2 [compound 259, 8-methoxy-6-[7-[2-[(3R)-3-methylmorpholin-4-yl]ethoxy]imidazo[1,2-a]pyridin-3-yl]-2-(2,2,2-trifluoroethyl)-3,4-dihydroisoquinolin-1-one] | 
0.01 to 10 nM | 0.01 to 10 nM | 100 to 1000 nM | COc1cc(-c2cnc3cc(OCCCN4CC5(COC5)C4)ccn23)cc(OC(F)F)c1C(=O)NC1CC1 [compound 273, N-cyclopropyl-2-(difluoromethoxy)-6-methoxy-4-[7-[3-(2-oxa-6-azaspiro[3.3]heptan-6-yl)propoxy]imidazo[1,2-a]pyridin-3-yl]benzamide] | 
0.01 to 10 nM | 0.01 to 10 nM | 100 to 1000 nM | COc1cc(-c2cnc3cc(OCCCN4CCC4)ccn23)cc(OC(F)F)c1C(=O)NC1CC1 [compound 274, 4-[7-[3-(azetidin-1-yl)propoxy]imidazo[1,2-a]pyridin-3-yl]-N-cyclopropyl-2-(difluoromethoxy)-6-methoxy-benzamide] | 
0.01 to 10 nM | 0.01 to 10 nM | 100 to 1000 nM | COc1cc(-c2cnc3cc(OCCCN4CCCC4)ccn23)cc(OC(F)F)c1C(=O)NC1CC1 [compound 275, N-cyclopropyl-2-(difluoromethoxy)-6-methoxy-4-[7-(3-pyrrolidin-1-ylpropoxy)imidazo[1,2-a]pyridin-3-yl]benzamide] | 
0.01 to 10 nM | 0.01 to 10 nM | 100 to 1000 nM | COc1cc(-c2cnc3cc(OCCN4CCN(C(C)C)CC4)ccn23)cc(OC(F)F)c1C(=O)NC1CC1 [compound 276, N-cyclopropyl-2-(difluoromethoxy)-4-[7-[2-(4-isopropylpiperazin-1-yl)ethoxy]imidazo[1,2-a]pyridin-3-yl]-6-methoxy-benzamide] | 
0.01 to 10 nM | 0.01 to 10 nM | 1000 to 5000 nM | COc1cc(-c2cnc3cc(OCCCN4CCNCC4)ccn23)cc(OC(F)F)c1C(=O)NC1CC1 [compound 278, N-cyclopropyl-2-(difluoromethoxy)-6-methoxy-4-[7-(3-piperazin-1-ylpropoxy)imidazo[1,2-a]pyridin-3-yl]benzamide] | 
0.01 to 10 nM | 0.01 to 10 nM | 100 to 1000 nM | COc1cc(-c2cnc3cc(OCCOCCN4CCCCC4)ccn23)cc(OC(F)F)c1C(=O)NC1CC1 [compound 305] | 
0.01 to 10 nM | 0.01 to 10 nM | 0.1 to 100 nM | COc1cc(-c2cnc3cc(OCCCN4CCC5(CC4)CN(C)C(=O)O5)ccn23)cc(OC(F)F)c1C(=O)NC1CC1 [compound 325, N-cyclopropyl-2-(difluoromethoxy)-6-methoxy-4-[7-[3-(3-methyl-2-oxo-1-oxa-3,8-diazaspiro[4.5]decan-8-yl)propoxy]imidazo[1,2-a]pyridin-3-yl]benzamide] | 
0.01 to 10 nM | 0.01 to 10 nM | 0.1 to 100 nM | COc1cc(-c2cnc3cc(OCCCN4CCCC(O)C4)ccn23)cc(OC(F)F)c1C(=O)NC1CC1 (stereo not drawn) [compound 328, N-cyclopropyl-2-(difluoromethoxy)-4-[7-[3-(3-hydroxy-1-piperidyl)propoxy]imidazo [1,2-a]pyridin-3-yl]-6-methoxy-benzamide] | 
0.01 to 10 nM | 0.01 to 10 nM | 0.1 to 100 nM | CCOC(=O)C1(F)CCN(CC(O)COc2ccn3c(-c4cc(OC)c(C(=O)NC5CC5)c(OC(F)F)c4)cnc3c2)CC1 (stereo not drawn) [compound 384, ethyl 1-[3-[3-[4-(cyclopropylcarbamoyl)-3-(difluoromethoxy)-5-methoxy-phenyl]imidazo[1,2-a]pyridin-7-yl]oxy-2-hydroxy-propyl]-4-fluoro-piperidine-4-carboxylate] | 

SMILES | IC50 (SIK2) | IC50 (SIK3) | EC50 [1, 2] | EC50 ([1]; read-out: TNFα EC50 (nM))
COc1cc(-c2cnc3cc(OCCN4C5CCC4COC5)ccn23)cc(OC(F)F)c1C(=O)NC1CC1 [compound 193, N-cyclopropyl-2-(difluoromethoxy)-6-methoxy-4-[7-[2-(3-oxa-8-azabicyclo [3.2.1]octan-8-yl)ethoxy]imidazo[1,2-a]pyridin-3-yl]benzamide] | 0.01 to 10 nM | 0.01 to 10 nM |  | 100 to 1000 nM
